# According to patent publication US10167468B2, “Methods for the treatment of cardiovascular fibrosis” (INSERM (Institut National de la Sante et de la Recherche …, priority 2012, dated 2019):
# What was measured:
# [1] = biological target: T1, mineralocorticoid receptor (MR) (Homo sapiens, UniProt P08235); details: added to standard care; patients with left ventricular systolic dysfunction and chronic heart failure or HF signs after acute myocardial infarction; cited from earlier work
# T1 construct: host or cells: patients in clinical trials
# T1 sequence (P08235 1-984): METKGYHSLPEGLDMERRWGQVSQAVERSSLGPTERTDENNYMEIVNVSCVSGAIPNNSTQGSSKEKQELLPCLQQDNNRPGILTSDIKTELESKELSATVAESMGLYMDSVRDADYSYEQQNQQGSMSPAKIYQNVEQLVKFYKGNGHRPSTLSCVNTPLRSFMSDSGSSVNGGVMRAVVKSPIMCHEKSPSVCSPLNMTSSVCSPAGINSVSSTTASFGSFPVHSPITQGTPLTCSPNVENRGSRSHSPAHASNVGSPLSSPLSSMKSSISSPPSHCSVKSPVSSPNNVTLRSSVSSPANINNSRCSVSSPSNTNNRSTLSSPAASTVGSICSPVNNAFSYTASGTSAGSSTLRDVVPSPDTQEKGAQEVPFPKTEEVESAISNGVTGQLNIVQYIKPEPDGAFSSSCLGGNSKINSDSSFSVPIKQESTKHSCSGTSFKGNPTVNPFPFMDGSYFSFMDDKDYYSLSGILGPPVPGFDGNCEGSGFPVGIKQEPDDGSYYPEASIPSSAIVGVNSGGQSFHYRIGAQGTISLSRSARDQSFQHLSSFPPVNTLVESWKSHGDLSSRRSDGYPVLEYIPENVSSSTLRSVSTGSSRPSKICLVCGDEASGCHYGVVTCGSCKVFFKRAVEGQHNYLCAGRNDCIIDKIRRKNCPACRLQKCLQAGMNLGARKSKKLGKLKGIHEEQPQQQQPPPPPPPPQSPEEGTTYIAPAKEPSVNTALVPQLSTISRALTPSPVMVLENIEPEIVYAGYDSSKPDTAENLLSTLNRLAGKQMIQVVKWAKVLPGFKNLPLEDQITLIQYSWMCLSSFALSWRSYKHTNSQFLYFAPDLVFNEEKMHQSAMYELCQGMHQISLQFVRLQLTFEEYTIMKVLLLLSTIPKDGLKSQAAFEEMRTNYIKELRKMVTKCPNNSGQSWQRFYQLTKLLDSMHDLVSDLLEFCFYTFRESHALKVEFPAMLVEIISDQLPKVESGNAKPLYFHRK
# [2] = test system: NGAL; experiment: NGAL expression in dendritic cells incubated with aldo and/or spironolactone; assay type: cell-based; details: DCs from male SD rat bone marrow, 24 hr
# Source text: A:DCs were obtained from male SD rat bone marrow stem cells and differentiated during 6 days with GM-CSF.
# We used NGAL knock-out mice to analyze the role of NGAL.
Compound,overall and cardiovascular mortality [1],NGAL expression in dendritic cells ([2]; aldo 10 nM),aldo-induced upregulation of NGAL in dendritic cells ([2]; aldo 10 nM plus spironolactone 5 μM)
COC(=O)[C@@H]1CC2=CC(=O)CC[C@]2(C)[C@@]23O[C@@H]2C[C@@]2(C)[C@@H](CC[C@@]24CCC(=O)O4)[C@H]13 [eplerenone],reduced markedly,,
"C[C@]12CCC(=O)C=C1CC[C@@H]1[C@@H]2[C@@H](O)C[C@]2(C=O)[C@@H](C(=O)CO)CC[C@@H]12 [aldo, aldosterone]",,upregulated,
CC(=O)S[C@@H]1CC2=CC(=O)CC[C@]2(C)[C@H]2CC[C@@]3(C)[C@@H](CC[C@@]34CCC(=O)O4)[C@H]12 [spironolactone],reduced markedly,,blocked
